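Test compounds were applied to cells in 96-well plates for 48 hours at 5 doses. GI50: concentration for 50% inhibition of growth. TGI marks complete inhibition of growth.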
Columns and labels:
Assay in all cases: growth of human tumour cells (NCI), 48 h
[1] = system: 786-0 renal
[2] = system: A498 renal
[3] = system: A549 NSCLC
[4] = system: ACHN renal
[5] = system: BT-549 breast
[6] = system: CAKI-1 renal
[7] = system: CCRF-CEM leukemia
[8] = system: COLO 205 colon
[9] = system: DU-145 prostate
[10] = system: EKVX NSCLC
[11] = system: HCC-2998 colon
[12] = system: HCT-116 colon
[13] = system: HCT-15 colon
[14] = system: HL-60(TB) leukemia
[15] = system: HOP-62 NSCLC
[16] = system: HOP-92 NSCLC
[17] = system: HS 578T breast
[18] = system: HT29 colon
[19] = system: IGROV1 ovarian
[20] = system: K-562 leukemia
[21] = system: KM12 colon
[22] = system: LOX IMVI melanoma
[23] = system: M14 melanoma
[24] = system: MALME-3M melanoma
[25] = system: MCF7 breast
[26] = system: MDA-MB-231 breast
[27] = system: MDA-MB-435
[28] = system: MOLT-4 leukemia
[29] = system: NCI-H226 lung
[30] = system: NCI-H23 lung
[31] = system: NCI-H460 lung
[32] = system: NCI-H522 lung
[33] = system: NCI/ADR-RES ovarian
[34] = system: OVCAR-3 ovarian
[35] = system: OVCAR-4 ovarian
[36] = system: OVCAR-5 ovarian
[37] = system: OVCAR-8 ovarian
[38] = system: PC-3 prostate
[39] = system: RPMI-8226 leukemia
[40] = system: RXF 393 renal
[41] = system: SF-268 CNS
[42] = system: SF-295 CNS
[43] = system: SF-539 CNS
[44] = system: SK-MEL-2 melanoma
[45] = system: SK-MEL-28 melanoma
[46] = system: SK-MEL-5 melanoma
[47] = system: SK-OV-3 ovarian
[48] = system: SN12C renal
[49] = system: SNB-19 CNS
[50] = system: SNB-75 CNS
[51] = system: SR leukemia
[52] = system: SW-620 colon
[53] = system: T-47D breast
[54] = system: TK-10 renal
[55] = system: U251 CNS
[56] = system: UACC-257 melanoma
[57] = system: UACC-62 melanoma
[58] = system: UO-31 renal

## CN(C)c1ccc2[nH]c(O)c(C=Nc3ccc(S(N)(=O)=O)cc3)c2c1
[1]
  GI50: > 25 µM
  TGI: > 25 µM
[2]
  GI50: > 25 µM
  TGI: > 25 µM
[3]
  GI50: > 25 µM
  TGI: > 25 µM
[4]
  GI50: > 25 µM
  TGI: > 25 µM
[5]
  GI50: > 25 µM
  TGI: > 25 µM
[6]
  GI50: > 25 µM
  TGI: > 25 µM
[7]
  GI50: 17.9 µM
  TGI: > 25 µM
[8]
  GI50: 15.6 µM
  TGI: > 25 µM
[9]
  GI50: > 25 µM
  TGI: > 25 µM
[10]
  GI50: > 25 µM
  TGI: > 25 µM
[11]
  GI50: > 25 µM
  TGI: > 25 µM
[12]
  GI50: 20.3 µM
  TGI: > 25 µM
[13]
  GI50: > 25 µM
  TGI: > 25 µM
[14]
  GI50: > 25 µM
  TGI: > 25 µM
[15]
  GI50: > 25 µM
  TGI: > 25 µM
[16]
  GI50: > 25 µM
  TGI: > 25 µM
[17]
  GI50: > 25 µM
  TGI: > 25 µM
[18]
  GI50: > 25 µM
  TGI: > 25 µM
[19]
  GI50: > 25 µM
  TGI: > 25 µM
[20]
  GI50: > 25 µM
  TGI: > 25 µM
[21]
  GI50: 1.15 µM
  TGI: > 25 µM
[22]
  GI50: > 25 µM
  TGI: > 25 µM
[23]
  GI50: > 25 µM
  TGI: > 25 µM
[24]
  GI50: > 25 µM
  TGI: > 25 µM
[25]
  GI50: 19 µM
  TGI: > 25 µM
[26]
  GI50: > 25 µM
  TGI: > 25 µM
[27]
  GI50: > 25 µM
  TGI: > 25 µM
[28]
  GI50: > 25 µM
  TGI: > 25 µM
[29]
  GI50: > 25 µM
  TGI: > 25 µM
[30]
  GI50: > 25 µM
  TGI: > 25 µM
[31]
  GI50: > 25 µM
  TGI: > 25 µM
[32]
  GI50: > 25 µM
  TGI: > 25 µM
[33]
  GI50: > 25 µM
  TGI: > 25 µM
[34]
  GI50: > 25 µM
  TGI: > 25 µM
[35]
  GI50: > 25 µM
  TGI: > 25 µM
[36]
  GI50: > 25 µM
  TGI: > 25 µM
[37]
  GI50: > 25 µM
  TGI: > 25 µM
[38]
  GI50: > 25 µM
  TGI: > 25 µM
[39]
  GI50: > 25 µM
  TGI: > 25 µM
[40]
  GI50: > 25 µM
  TGI: > 25 µM
[41]
  GI50: > 25 µM
  TGI: > 25 µM
[42]
  GI50: > 25 µM
  TGI: > 25 µM
[43]
  GI50: > 25 µM
  TGI: > 25 µM
[44]
  GI50: > 25 µM
  TGI: > 25 µM
[45]
  GI50: > 25 µM
  TGI: > 25 µM
[46]
  GI50: > 25 µM
  TGI: > 25 µM
[47]
  GI50: > 25 µM
  TGI: > 25 µM
[48]
  GI50: > 25 µM
  TGI: > 25 µM
[49]
  GI50: > 25 µM
  TGI: > 25 µM
[50]
  GI50: > 25 µM
  TGI: > 25 µM
[51]
  GI50: 13.5 µM
  TGI: > 25 µM
[52]
  GI50: > 21.9 µM
  TGI: > 25 µM
[53]
  GI50: > 25 µM
  TGI: > 25 µM
[54]
  GI50: > 25 µM
  TGI: > 25 µM
[55]
  GI50: > 25 µM
  TGI: > 25 µM
[56]
  GI50: > 25 µM
  TGI: > 25 µM
[57]
  GI50: > 25 µM
  TGI: > 25 µM
[58]
  GI50: > 25 µM
  TGI: > 25 µM

Reference: PubChem BioAssay (NCI)
